# Patent US9920010B2, “CXCR7 receptor modulators” (IDORSIA PHARMACEUTICALS LTD, priority 2013, dated 2018)
# Biological target: T1, CXCR7 (Homo sapiens, UniProt P25106)
# T1 construct: host or cells: CHO-K1 (PathHunter CHO-K1 CXCR7 b-arrestin cell line, stably transfected)
# Test: PathHunter CHO-K1 CXCR7 b-arrestin recruitment assay (CXCR7 agonistic activity)
# Type: cell-based
# Conditions: PathHunter CHO-K1 CXCR7 b-arrestin cell line
# How it was run: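 Stable CHO-K1 line with C-terminally ProLink-tagged CXCR7 and β-arrestin 2–EA fusion; β-arrestin recruitment restores β-gal activity, read by chemiluminescence after 1 h RT detection. Cells seeded 24 h, starved in OPTIMEM 3–4 h, exposed to compounds 90 min at 37 °C in HBSS/HEPES/BSA. Geometric-mean EC50 from repeated measurements.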
# T1 sequence (P25106 whole entry): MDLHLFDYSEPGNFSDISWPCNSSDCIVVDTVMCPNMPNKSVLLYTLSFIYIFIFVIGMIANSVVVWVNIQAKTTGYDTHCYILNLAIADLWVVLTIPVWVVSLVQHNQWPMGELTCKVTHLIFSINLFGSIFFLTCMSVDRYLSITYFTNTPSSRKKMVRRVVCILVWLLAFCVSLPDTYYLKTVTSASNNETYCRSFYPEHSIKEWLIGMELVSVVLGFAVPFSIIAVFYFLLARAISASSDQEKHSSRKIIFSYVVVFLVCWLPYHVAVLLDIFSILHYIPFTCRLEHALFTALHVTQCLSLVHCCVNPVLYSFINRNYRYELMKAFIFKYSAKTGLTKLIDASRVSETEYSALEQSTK
# T1 sequence (P32121 whole entry partner): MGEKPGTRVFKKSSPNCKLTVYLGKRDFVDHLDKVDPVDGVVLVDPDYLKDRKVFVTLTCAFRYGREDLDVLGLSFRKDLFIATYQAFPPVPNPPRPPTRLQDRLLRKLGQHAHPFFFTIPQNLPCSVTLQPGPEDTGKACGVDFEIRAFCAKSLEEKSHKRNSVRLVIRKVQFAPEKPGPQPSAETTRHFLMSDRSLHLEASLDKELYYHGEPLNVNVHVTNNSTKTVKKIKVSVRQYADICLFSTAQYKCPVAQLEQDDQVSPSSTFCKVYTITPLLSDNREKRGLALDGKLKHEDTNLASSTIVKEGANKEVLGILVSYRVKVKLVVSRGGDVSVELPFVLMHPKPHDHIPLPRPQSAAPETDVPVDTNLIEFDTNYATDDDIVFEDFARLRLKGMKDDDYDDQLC
row,Structure (SMILES),EC50 [nM]
1,"CN(C)CCN(Cc1ccccc1C(F)(F)F)C(=O)CNc1cccc2c1CCN(C1CCOC1)C2 (racemic) [Example 351, rac-N-(2-Dimethylamino-ethyl)-2-[2-(tetrahydro-furan-3-yl)-1,2,3,4-tetrahydro-isoquinolin-5-ylamino]-N-(2-trifluoromethyl-benzyl)-acetamide]",34
2,"COCCN1CCc2c(CCC(=O)N(CCN3CCC(F)(F)CC3)Cc3ncccc3Cl)cccc2C1 [Example 345, N-(3-Chloro-pyridin-2-ylmethyl)-N-[2-(4,4-difluoro-piperidin-1-yl)-ethyl]-3-[2-(2-methoxy-ethyl)-1,2,3,4-tetrahydro-isoquinolin-5-yl]-propionamide]",400
3,"O=C(/C=C/c1cccc2c1CCN(CC1CC1)C2)N(CCO)Cc1ccccc1 [Example 138, (E)-N-Benzyl-3-(2-cyclopropylmethyl-1,2,3,4-tetrahydro-isoquinolin-5-yl)-N-(2-hydroxy-ethyl)-acrylamide]",55
4,"CN(C)CCN(Cc1ncccc1C(F)(F)F)C(=O)CNc1cccc2c1CCN(C1CCC1)C2 [Example 366, 2-(2-Cyclobutyl-1,2,3,4-tetrahydro-isoquinolin-5-ylamino)-N-(2-dimethylamino-ethyl)-N-(3-trifluoromethyl-pyridin-2-ylmethyl)-acetamide]",2
5,O=C(CNc1cccc2c1CN(CC1CC1)CC2)N(CCN1CCC(F)(F)CC1)Cc1ncccc1C(F)(F)F [compound 476],15
6,"CCNC(=O)N1CCc2c(cccc2NCC(=O)N(CCNC)Cc2ncccc2C(F)(F)F)C1 [compound 429, 5-({[(2-Methylamino-ethyl)-(3-trifluoromethyl-pyridin-2-ylmethyl)-carbamoyl]-methyl}-amino)-3,4-dihydro-1H-isoquinoline-2-carboxylic acid ethylamide]",7
7,"CCN1CCc2cccc(OCC(=O)N(CCN(C)C)Cc3ccccc3C(F)(F)F)c2C1 [compound 567, N-(2-Dimethylamino-ethyl)-2-(2-ethyl-1,2,3,4-tetrahydro-isoquinolin-8-yloxy)-N-(2-trifluoromethyl-benzyl)-acetamide]",4
8,"CN(C)CCN(Cc1ccccc1Cl)C(=O)COc1cccc2c1CCN(CC1CC1)C2 [compound 172, N-(2-Chloro-benzyl)-2-(2-cyclopropylmethyl-1,2,3,4-tetrahydro-isoquinolin-5-yloxy)-N-(2-dimethylamino-ethyl)-acetamide]",2

# Results, then the compound that gave them:
row,EC50 [nM],Structure (SMILES)
1,11,"CCC(=O)N1CCc2c(cccc2NCC(=O)N(CCN(C)C)Cc2ccccc2Cl)C1 [Example 20, N-(2-Chloro-benzyl)-N-(2-dimethylamino-ethyl)-2-(2-propionyl-1,2,3,4-tetrahydro-isoquinolin-5-ylamino)-acetamide]"
2,257,CN(C)CCN(Cc1ccccc1Cl)C(=O)CNc1cccc2c1CN(CC1CC1)CC2(C)C [compound 197]
3,85,"CN(C)CCN(Cc1ccccc1C(F)(F)F)C(=O)CNc1cccc2c1CCN(C1COC1)C2 [Example 353, N-(2-Dimethylamino-ethyl)-2-(2-oxetan-3-yl-1,2,3,4-tetrahydro-isoquinolin-5-ylamino)-N-(2-trifluoromethyl-benzyl)-acetamide]"
4,6,"CN(C)CCN(Cc1ccccc1C(F)(F)F)C(=O)CNc1cccc2c1CCN(CCCF)C2 [Example 574, N-(2-Dimethylamino-ethyl)-2-[2-(3-fluoro-propyl)-1,2,3,4-tetrahydro-isoquinolin-5-ylamino]-N-(2-trifluoromethyl-benzyl)-acetamide]"
5,17,"CCN1CCc2c(CCC(=O)N(CCN(C)C)Cc3ccccc3Cl)cccc2C1 [compound 155, N-(2-Chloro-benzyl)-N-(2-dimethylamino-ethyl)-3-(2-ethyl-1,2,3,4-tetrahydro-isoquinolin-5-yl)-propionamide]"
6,23,"CN(C)CCN(Cc1ccccc1C(F)(F)F)C(=O)CNc1cccc2c1CCN(CC(F)(F)F)C2 [Example 86, N-(2-Dimethylamino-ethyl)-2-[2-(2,2,2-trifluoro-ethyl)-1,2,3,4-tetrahydro-isoquinolin-5-ylamino]-N-(2-trifluoromethyl-benzyl)-acetamide]"
